Consider four compounds from patent publication US4336268A, “Cyclohexene derivative analgesics” (Hoffmann-La Roche Inc., priority 1980, dated 1982).

Structures can show the parent of a compound that is named as a salt.

Assay type in all cases: in vivo
Data set [1] is described as follows: "writhing test" (analgesic activity). As to conditions: p.o.; for ED50: Mus musculus, po. The text has this: (§1) In the Table which follows are compiled the ED50 values obtained in this test with representative compounds of formula I. The Table also contains data relating to the acute toxicity of the compounds, that is, LD50 in mg/kg in the case of single oral administration to mice.

Data set [2] is described as follows: acute toxicity, single oral administration to mice. The settings on record: mouse, in vivo.
Source text: as §1

Data set [3] relates to mice. Description: acute toxicity, single oral administration to mice.
Source text: as §1

Turning to `CN(C)CCC1(c2cccc(O)c2)C=CCCC1` (racemic) [rac. 1-(m-Hydroxyphenyl)-N,N-dimethyl-2-cyclohexene-1-ethylamine hydrochloride], the ED50 in data set [1] (0.5 h, after 30 min.) turned out to be 41 mg/kg; in data set [1] (1 h, after 60 min.), 26 mg/kg. In data set [2], this compound came in with an LD50 of 250 to 500 mg/kg.
For the compound `COc1cccc(C2(CCN(C)C)C=CCCC2)c1` (racemic) [rac. 1-(m-methoxyphenyl)-N,N-dimethyl-2-cyclohexene-1-ethylamine hydrochloride], the ED50 in data set [1] (0.5 h, after 30 min.) worked out at 33 mg/kg; in data set [1] (1 h, after 60 min.), 35 mg/kg. In data set [2], this compound displayed an LD50 of 150 to 300 mg/kg.
`COc1cccc(C2(CCN(C)C)C=CCCC2)c1.Cl` (single isomer, unassigned; (+)) [(+)-1-(m-Methoxyphenyl)-N,N-dimethyl-2-cyclohexene-1-ethylamine hydrochloride] showed an ED50 in data set [1] (1 h, after 60 min.) of 24 mg/kg. In data set [2], this compound yielded an LD50 of 250 to 500 mg/kg.
As for `COc1cccc(C2(CCN(C)C)C=CCCC2)c1.Cl` (single isomer, unassigned; (-)) [(-)-1-(m-Methoxyphenyl)-N,N-dimethyl-2-cyclohexene-1-ethylam] [(-)-1-(m-Methoxyphenyl)-N,N-dimethyl-2-cyclohexene-1-ethylamine hydrochloride], in data set [1] (after 60 min., hydrochloride, 60 min), the “ED50 in the "writhing test"” value is listed as 19 mg/kg. Also, in data set [3], the LD50 was 250 to 500 mg/kg.
